How the values were obtained:
Notch1(1704–2531) = assay: Western blot in assay cells; assay type: cell-based, mouse; conditions: LS174T Notch cells, 12 h
Experimental: (§1) After another 12 h incubation with 50 ng/mL Dox, and cells were washed with PBS. Medium was changed to fresh medium with 2 and incubated for 12 h. […] (C–F) Relative protein levels analyzed by densitometry. […] P values were analyzed by Student’s t test.
(§2) Before another 12 h incubation, 50 ng/mL of doxycycline was added into each dish. Then, medium was changed to fresh medium with each compound. After 12 h incubation, cells were washed with PBS (500 μL) twice and then cells were collected by scraping. Using lysis buffer (20 mM Tris-HCl pH 7.4, 150 mM NaCl, 0.5% sodium deoxycholate, 10 mM EDTA, 1 mM sodium orthovanadate, and 0.1 mM NaF) containing a 1% […] inhibiotor cocktail (Nacalai Tesque, Tokyo, Japan), protein lysate was prepared. Protein lysates were separated by a 7.5%, 10%, 12.5% and 15% SDS-PAGE electrophoresis. Proteins were then transferred to a PVDF membrane (Bio-Rad Laboratories, Inc. Hercules, USA) electrophoretically. The membrane was incubated for 1 h with TBST (10 mM Tris-HCl pH 7.4, 100 mM NaCl and 0.1% Tween 20) containing 5% skimmed milk. […]

NICD = assay: Western blot in assay cells; assay type: cell-based, mouse; conditions: LS174T Notch cells, 12 h
Experimental: as §1, §2

[1] = Cytotoxicity test, AlamarBlue; conditions: human, HPB-ALL cells
Experimental: HPB-ALL cells (1 × 10^4 cells per well) were incubated in 96-well black plates at 37 °C for 72 h. Media also contained different concentrations of compound. After incubation, AlamarBlue was added 10 μL per well. After incubation for 4 h, using a fluorescence plate reader, fluorescence was measured and cell viability was determined. Data are presented as the mean with SD from three independent experiments. […] The effect on protein expression was analyzed by Western blotting. β-Actin was used as internal control. (D,E) Relative protein levels of NICD and HES1 analyzed by densitometry. Data are presented as the mean with SD from three independent experiments. *P < 0.05 is considered statistically significant. P values were analyzed by Student’s t test.
HPB-ALL cells (1 × 10^4 cells per well) were incubated in 96-well black plates in 100 μL of RPMI-1640 medium with 10% FBS, Streptomycin (100 μg/mL) and Penicillin (100 unit/mL). Media also contained different concentrations of compound. Cells were incubated at 37 °C for 72 h. After incubation, AlamarBlue (00–025, DAL1025; Thermo Fisher Scientific Inc., Waltham, USA) was added 10 μL per well. After incubation for 4 h, using a fluorescence plate reader (Thermo Fisher Scientific Inc., Waltham, USA), fluorescence was measured and cell viability was determined.

For `COc1c(O)cc2oc3cc(O)c(CC=C(C)C)c(O)c3c(=O)c2c1C/C=C(\C)CCC=C(C)C` [Compound 2, cowanin], the “expression of Notch1(1704–2531)” value (Notch1(1704–2531)) was “increased”, the NICD level (NICD) was “reduced dose dependently” and the IC50 at 72 h [1] was 7.5 µM. It also gave a viability at 12 h, 15 µM [1] of 98%.

Reference: paper PMC5876388 (Scientific Reports, 2018)
